Results as given in patent US20130059824A1, “METHODS FOR TREATING MILD COGNITIVE IMPAIRMENT” (AFRAXis, Inc., priority 2009, published 2013).

Tests used:
[1] = target: PAK1 (Homo sapiens, UniProt Q13153); test: Z'Lyte fluorescence-based (FRET) kinase assay, PAK1; assay type: biochemical; conditions: 50 μM ATP (Km apparent), 1 hr room temperature
Procedure: (§1) A fluorescence-based assay format is used to determine IC50 values of test compounds in vitro. Purified PAK kinase is incubated with ATP, and a test compound at various concentrations and a substrate peptide containing two fluorophores. In a second step, the reaction mix is incubated with a site-specific protease that cleaves non-phosphorylated but not phosphorylated substrate peptide, disrupting the FRET signal generated by the two fluorophores in the cleaved peptide (Z'Lyte™ Kinase assay platform; Life Technologies).
(§2) Reagents: 50 mM HEPES, pH 7.5; 0.01% BRIJ-35; 10 mM MgCl2; 1 mM EGTA, 2 uM substrate peptide Ser/Thr20 (proprietary Life Technologies Sequence), PAK enzyme [2.42-30.8 ng for PAK1, 0.29-6 ng for PAK2, 1.5-20 ng for PAK3 and 0.1-0.86 ng for PAK4; actual enzyme amounts depend on lot activity of the enzyme preparation]
(§3) Test compounds are dissolved in DMSO at various concentrations; the final DMSO concentration in the assay reaction is 1%.
(§4) ATP concentration at Km apparent is used in the assay [50 ? M ATP for PAK1 assay, 75 ? […]
(§5) Plates are analyzed in a standard fluorescence plate reader (Tecan or equivalent) using an excitation wavelength of 400 nm and emission wavelengths of 445 nm and 520 nm Inhibition of kinase reaction is determined by emission ratio=emission@ 445 nm/emission@ 520 nm

[2] = target: PAK2 (Homo sapiens, UniProt Q13177); test: Z'Lyte fluorescence-based (FRET) kinase assay, PAK2; assay type: biochemical; conditions: 75 μM ATP (Km apparent), 1 hr room temperature
Procedure: as §1, §2, §3, §4, §5

[3] = target: PAK3 (Homo sapiens, UniProt O75914); test: Z'Lyte fluorescence-based (FRET) kinase assay, PAK3; assay type: biochemical; conditions: 100 μM ATP (Km apparent), 1 hr room temperature
Procedure: as §1, §2, §3, §4, §5

[4] = target: PAK4 (Homo sapiens, UniProt O96013); test: Z'Lyte fluorescence-based (FRET) kinase assay, PAK4; assay type: biochemical; conditions: 5 μM ATP (Km apparent), 1 hr room temperature
Procedure: as §1, §2, §3, §4, §5

[5] = system: C57/black 6 mice temporal cortex slices; test: Slice electrophysiology assay (LTP in cortical slices); assay type: cell-based; conditions: 1 μM compound; theta-burst stimulation protocol; temporal cortex slices of C57/black 6 mice
Procedure: Materials: coronal cortical slices (400 μam) containing temporal cortex from 2- to 3-month-old C57-Black-6 mice male littermates (from Elevage Janvier, FRANCE) are prepared and allowed to recover in oxygenated (95% O2 and 5% CO2) warm (30° C.) artificial cerebrospinal fluid (ACSF) containing 124 mM NaCl, 5 mM KCl, 1.25 mM, NaH2PO4, 1 mM MgCl2, 2 mM CaCl2, 26 mM NaHCO3, and 10 mM dextrose.
Compound dilution: a 10 mM DMSO stock solution is prepared for each test compound and 100 μL aliquots are stored at −20° C. On the day of experiment an aliquot is thawed and vortexed for fresh solutions preparation. […]
LTP: a stimulus is applied every 30 s with an intensity settled at 40% of the maximal amplitude responses. […] Potentiation of synaptic transmission is then monitored for an additional 40 minutes period. […]
Compound evaluation: following a 10 minutes control recording period (to verify baseline stability), the compound is perfused for 20 minutes. Then, LTP is triggered and the fEPSP amplitude will be recorded for an additional 40 minutes period in the presence of compound.
Data analysis: fEPSP amplitudes are measured as the difference between the baseline (before stimulation) and the maximal peak amplitude. The fEPSP are normalized as a percent of the mean averaged amplitude recorded over a 10 min control period, before compound application. […]

PAK2, sequence (Q13177 whole entry): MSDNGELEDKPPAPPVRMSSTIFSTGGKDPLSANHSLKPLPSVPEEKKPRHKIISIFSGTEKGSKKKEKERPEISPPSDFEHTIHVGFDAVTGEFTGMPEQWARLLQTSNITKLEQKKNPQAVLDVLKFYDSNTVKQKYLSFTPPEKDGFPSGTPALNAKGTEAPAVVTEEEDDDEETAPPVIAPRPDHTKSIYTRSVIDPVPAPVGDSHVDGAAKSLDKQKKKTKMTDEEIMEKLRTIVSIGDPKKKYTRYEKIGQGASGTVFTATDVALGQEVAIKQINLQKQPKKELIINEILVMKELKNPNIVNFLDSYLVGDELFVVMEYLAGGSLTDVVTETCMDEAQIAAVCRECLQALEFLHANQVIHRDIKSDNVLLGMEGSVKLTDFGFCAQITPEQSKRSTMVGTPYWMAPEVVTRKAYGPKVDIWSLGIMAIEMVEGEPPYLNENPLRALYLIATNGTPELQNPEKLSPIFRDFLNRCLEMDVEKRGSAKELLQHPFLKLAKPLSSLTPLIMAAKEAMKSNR
PAK4, sequence (O96013 whole entry): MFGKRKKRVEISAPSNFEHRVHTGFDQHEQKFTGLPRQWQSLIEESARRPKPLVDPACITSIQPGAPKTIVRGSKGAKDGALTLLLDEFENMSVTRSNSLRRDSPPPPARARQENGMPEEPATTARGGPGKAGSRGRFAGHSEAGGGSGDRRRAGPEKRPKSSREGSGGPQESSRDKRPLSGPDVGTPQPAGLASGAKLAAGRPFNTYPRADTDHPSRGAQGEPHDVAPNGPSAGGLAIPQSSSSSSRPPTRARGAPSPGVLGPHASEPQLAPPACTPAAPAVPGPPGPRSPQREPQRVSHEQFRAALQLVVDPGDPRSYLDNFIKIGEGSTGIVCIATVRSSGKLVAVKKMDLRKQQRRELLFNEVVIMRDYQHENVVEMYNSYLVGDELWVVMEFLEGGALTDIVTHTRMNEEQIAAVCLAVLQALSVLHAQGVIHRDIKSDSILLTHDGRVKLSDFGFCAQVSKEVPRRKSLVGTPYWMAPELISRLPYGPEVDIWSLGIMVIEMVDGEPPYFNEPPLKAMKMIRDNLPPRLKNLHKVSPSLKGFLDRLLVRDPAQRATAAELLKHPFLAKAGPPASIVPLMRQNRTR
PAK1, sequence (Q13153 whole entry): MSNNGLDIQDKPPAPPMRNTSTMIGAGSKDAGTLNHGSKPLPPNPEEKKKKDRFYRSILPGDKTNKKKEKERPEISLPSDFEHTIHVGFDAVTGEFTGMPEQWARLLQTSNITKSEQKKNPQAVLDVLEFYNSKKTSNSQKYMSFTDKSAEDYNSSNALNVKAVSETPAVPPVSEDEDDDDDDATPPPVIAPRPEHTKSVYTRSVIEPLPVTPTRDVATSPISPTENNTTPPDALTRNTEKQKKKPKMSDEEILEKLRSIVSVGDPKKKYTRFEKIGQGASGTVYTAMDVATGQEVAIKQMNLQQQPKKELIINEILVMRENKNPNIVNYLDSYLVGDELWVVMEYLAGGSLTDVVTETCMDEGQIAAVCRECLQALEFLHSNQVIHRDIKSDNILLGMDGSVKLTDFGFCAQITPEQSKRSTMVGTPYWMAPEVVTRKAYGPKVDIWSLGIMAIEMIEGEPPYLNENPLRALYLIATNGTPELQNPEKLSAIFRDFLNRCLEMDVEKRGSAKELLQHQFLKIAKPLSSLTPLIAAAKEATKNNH
PAK3, sequence (O75914 whole entry): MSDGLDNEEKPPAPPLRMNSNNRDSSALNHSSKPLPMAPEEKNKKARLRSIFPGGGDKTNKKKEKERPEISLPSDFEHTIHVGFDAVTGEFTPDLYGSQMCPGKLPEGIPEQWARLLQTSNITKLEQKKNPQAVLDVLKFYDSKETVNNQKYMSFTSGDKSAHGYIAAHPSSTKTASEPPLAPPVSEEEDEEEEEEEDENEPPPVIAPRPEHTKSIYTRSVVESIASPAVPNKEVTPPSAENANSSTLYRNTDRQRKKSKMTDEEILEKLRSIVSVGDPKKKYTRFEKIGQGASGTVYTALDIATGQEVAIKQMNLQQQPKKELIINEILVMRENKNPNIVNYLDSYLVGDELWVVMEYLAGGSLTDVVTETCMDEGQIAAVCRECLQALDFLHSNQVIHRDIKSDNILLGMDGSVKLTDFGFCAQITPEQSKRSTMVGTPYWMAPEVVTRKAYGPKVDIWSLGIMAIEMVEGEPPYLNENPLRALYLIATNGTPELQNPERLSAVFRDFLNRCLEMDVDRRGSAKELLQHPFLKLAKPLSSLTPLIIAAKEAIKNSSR

## CCOc1ccccc1Cn1c(=O)ccc2cnc(Nc3ccc(N4CCN(C)CC4)cc3)nc21 [Compound 62]
[1]
  IC50: < 1 µM
[2]
  IC50: < 1 µM
[3]
  IC50: < 1 µM
[4]
  IC50: 1 to 10 µM

## COc1cc(Nc2nccc(-c3ccc(NCCN)nc3)n2)cc(OC)c1OC [Compound A]
[5]
  LTP compared to the baseline (fEPSP amplitude): increased LTP

## CN1CCN(c2ccc(Nc3ncc4ccc(=O)n(C5CCCC5)c4n3)cc2)CC1 [Compound G, 8-cyclopentyl-2-(4-(4-methylpiperazin-1-yl)phenylamino)pyrido[2,3-d]pyrimidin-7(8H)-one]
[5]
  LTP compared to the baseline (fEPSP amplitude): increased LTP
